Here are results for seven compounds from patent US8168567B2, “Thiadiazolyl oxyphenyl amidines and the use thereof as a fungicide” (Bayer Cropscience AG, priority 2007, dated 2012).

Each structure is given as a SMILES string.

A short description of one series: logP determination (acidic, pH 2.3). It is filed as physicochemical. Conditions: acidic, read-out: logP (acidic).
Take `Cc1cc(Oc2nc(C(C)(C)C)ns2)c(C)cc1N=CN(C)C(C)C` [A-2, N′-{4-[(3-(tert-butyl)-1,2,4-thiadiazol-5-yl)oxy]-2,5-dimethylphenyl}-N-isopropyl-N-methylimidoformamide]: the logP amounted to 2.15.
Take `CCN(C)C=Nc1cc(Cl)c(Oc2nc(C(C)(C)C)ns2)cc1C` [A-8, N′-{4-[(3-(tert-butyl)-1,2,4-thiadiazol-5-yl)oxy]-5-chloro-2-methylphenyl}-N-ethyl-N-methylimidoformamide]: the logP turned out to be 2.11.
Regarding `Cc1cc(Oc2nc(C(C)(C)C)ns2)c(Cl)cc1/N=C/N1CCCCC1` [A-9, 4-[(3-(tert-butyl)-1,2,4-thiadiazol-5-yl)oxy]-5-chloro-2-methyl-N-[(1E)-piperidin-1-ylmethylene]aniline], the logP came out at 2.36.
On the same count and under the same terms, next, `Cc1cc(Oc2nc(C(C)(C)C)ns2)c(C)cc1/N=C/N1CCCCC1` [A-3, 4-[(3-(tert-butyl)-1,2,4-thiadiazol-5-yl)oxy]-2,5-dimethyl-N-[(1E)-piperidin-1-ylmethylene]aniline]: 2.22.

Staying with this series, now noted: read-out: log P (pH 2.3).
On to `CC(C)(C)c1nsc(Cl)n1` [3-(tert-Butyl)-5-chloro-1,2,4-thiadiazole], for which the logP turned out to be 3.44.
With `Cc1cc(Oc2nc(C(C)(C)C)ns2)c(C)cc1N` [4-[(3-(tert-Butyl)-1,2,4-thiadiazol-5-yl)oxy]-2,5-dimethylaniline], the logP was 3.29.
Regarding `CCN(C)/C=N/c1cc(C)c(Oc2nc(C(C)(C)C)ns2)cc1C` [A-1, N′-{4-[(3-(tert-butyl)-1,2,4-thiadiazol-5-yl)oxy]-2,5-dimethylphenyl}-N-ethyl-N-methylimidoformamide], the logP amounted to 2.02.
